# Laboratory results reported in PubChem BioAssay (NCI).
#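 Dose response: 5 concentrations. Exposure: 48 h. Format: 96-well plates. Endpoint: linear interpolation; highest concentration if not reached. TGI denotes the concentration required for complete inhibition of growth.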
# Columns and labels:
# Assay in all cases: NCI anticancer screen, dose series, 48 h
# [1] = test system: T-47D breast
# [2] = test system: SK-OV-3 ovarian
# [3] = test system: SF-539 CNS
# [4] = test system: BT-549 breast
# [5] = test system: MALME-3M melanoma
# [6] = test system: RPMI-8226 leukemia
# [7] = test system: K-562 leukemia
# [8] = test system: KM12 colon
# [9] = test system: CCRF-CEM leukemia
# [10] = test system: SK-MEL-5 melanoma
# [11] = test system: SN12C renal
# [12] = test system: NCI-H23 lung
# [13] = test system: RXF 393 renal
# [14] = test system: 786-0 renal
# [15] = test system: SK-MEL-28 melanoma
# [16] = test system: MCF7 breast
# [17] = test system: A549 NSCLC
# [18] = test system: DU-145 prostate
# [19] = test system: NCI/ADR-RES ovarian
# [20] = test system: HL-60(TB) leukemia
# [21] = test system: HOP-92 NSCLC
# [22] = test system: HCT-15 colon
# [23] = test system: A498 renal
# [24] = test system: SR leukemia
# [25] = test system: HS 578T breast
# [26] = test system: CAKI-1 renal
# [27] = test system: TK-10 renal
# [28] = test system: UO-31 renal
# [29] = test system: UACC-257 melanoma
# [30] = test system: HCT-116 colon
# [31] = test system: MDA-MB-435
# [32] = test system: OVCAR-8 ovarian
# [33] = test system: ACHN renal
# [34] = test system: IGROV1 ovarian
# [35] = test system: NCI-H226 lung
# [36] = test system: MDA-N
# [37] = test system: NCI-H460 lung
# [38] = test system: U251 CNS
# [39] = test system: UACC-62 melanoma
# [40] = test system: PC-3 prostate
# [41] = test system: EKVX NSCLC
# [42] = test system: LOX IMVI melanoma
# [43] = test system: SF-268 CNS
# [44] = test system: HCC-2998 colon
# [45] = test system: OVCAR-5 ovarian
# [46] = test system: NCI-H522 lung
# [47] = test system: SNB-75 CNS
# [48] = test system: HOP-62 NSCLC
# [49] = test system: MDA-MB-231 breast
# [50] = test system: OVCAR-3 ovarian
# [51] = test system: MOLT-4 leukemia
# [52] = test system: COLO 205 colon
# [53] = test system: HT29 colon
# [54] = test system: SF-295 CNS
# [55] = test system: SW-620 colon
# [56] = test system: OVCAR-4 ovarian
structure (smiles),measurement,setting,value
CCOC(=O)c1nc2ccccc2nc1NCc1cc(OC)c(OC)c(OC)c1,TGI,[1],> 100 µM
same,TGI,[2],> 100 µM
same,TGI,[3],> 100 µM
same,TGI,[4],> 100 µM
same,TGI,[5],> 100 µM
same,TGI,[6],> 100 µM
same,TGI,[7],> 100 µM
same,TGI,[8],> 100 µM
same,TGI,[9],> 100 µM
same,TGI,[10],> 100 µM
same,TGI,[11],> 100 µM
same,TGI,[12],> 100 µM
same,TGI,[13],> 100 µM
same,TGI,[14],> 100 µM
same,TGI,[15],> 100 µM
same,TGI,[16],> 100 µM
same,TGI,[17],> 100 µM
same,TGI,[18],> 100 µM
same,TGI,[19],47.8 µM
same,TGI,[20],> 100 µM
same,TGI,[21],> 100 µM
same,TGI,[22],> 100 µM
same,TGI,[23],96.2 µM
same,TGI,[24],> 100 µM
same,TGI,[25],> 100 µM
same,TGI,[26],> 100 µM
same,TGI,[27],> 100 µM
same,TGI,[28],> 100 µM
same,TGI,[29],> 100 µM
same,TGI,[30],> 100 µM
same,TGI,[31],71.8 µM
same,TGI,[32],> 100 µM
same,TGI,[33],> 100 µM
same,TGI,[34],> 100 µM
same,TGI,[35],> 100 µM
same,TGI,[36],51.8 µM
same,TGI,[37],> 100 µM
same,TGI,[38],> 100 µM
same,TGI,[39],> 100 µM
same,TGI,[40],> 100 µM
same,TGI,[41],> 100 µM
same,TGI,[42],> 100 µM
same,TGI,[43],> 100 µM
same,TGI,[44],> 100 µM
same,TGI,[45],> 100 µM
same,TGI,[46],> 100 µM
same,TGI,[47],> 100 µM
same,TGI,[48],> 100 µM
same,TGI,[49],> 100 µM
same,TGI,[50],> 100 µM
same,TGI,[51],> 100 µM
same,TGI,[52],> 100 µM
same,TGI,[53],> 100 µM
same,TGI,[54],> 100 µM
same,TGI,[55],> 100 µM
same,TGI,[56],> 100 µM
